# Measured values: paper PMC7031696 (Cell chemical biology, 2019)
# System: 3D7-MR4 trophozoite parasite-infected RBCs
# Test: Metabolomic profiling (hydrophilic metabolite changes, UHPLC-MS)
# Assay type: cell-based, Plasmodium falciparum
smiles,measurement,setting,value
"CC(C)(C)NCc1cc(Nc2ccnc3cc(Cl)ccc23)c2c(c1O)CCCC2 [Naphtoquine, Naphthoquine, reference compound]",changes within the set of metabolites detected (low fold change group),"10 × IC50^72h, 2.5 hr, trophozoites",did not induce major changes
same,Log2(fold changes) 1_3-Bisphosphoglyceric acid,"metabolite 1_3-Bisphosphoglyceric acid, log2 fold change",0.0605
same,Log2(fold changes) 2-Hydroxy-2-methylbutanedioic acid,"metabolite 2-Hydroxy-2-methylbutanedioic acid, log2 fold change",0.0920
same,Log2(fold changes) 2-Isopropylmalic acid,"metabolite 2-Isopropylmalic acid, log2 fold change",0.0000
same,Log2(fold changes) 2-dehydro-D-gluconate,"metabolite 2-dehydro-D-gluconate, log2 fold change",-0.0605
same,Log2(fold changes) 2-oxo-4-methylthiobutanoate,"metabolite 2-oxo-4-methylthiobutanoate, log2 fold change",0.0000
same,Log2(fold changes) 2_3-Diphosphoglyceric acid,"metabolite 2_3-Diphosphoglyceric acid, log2 fold change",0.0000
same,Log2(fold changes) 3-phosphoglycerate,"metabolite 3-phosphoglycerate, log2 fold change",0.2077
same,Log2(fold changes) 3-phosphoserine,"metabolite 3-phosphoserine, log2 fold change",-0.0700
same,Log2(fold changes) 4-Pyridoxic acid,"metabolite 4-Pyridoxic acid, log2 fold change",0.2073
same,Log2(fold changes) 4-aminobutyrate,"metabolite 4-aminobutyrate, log2 fold change",0.0263
same,Log2(fold changes) 4-phosphopantetheine,"metabolite 4-phosphopantetheine, log2 fold change",0.0000
same,Log2(fold changes) 4-phosphopantothenate,"metabolite 4-phosphopantothenate, log2 fold change",-0.0475
same,Log2(fold changes) 5-aminopentanoic acid,"metabolite 5-aminopentanoic acid, log2 fold change",0.0000
same,Log2(fold changes) 5-methyl-THF,"metabolite 5-methyl-THF, log2 fold change",0.0000
same,Log2(fold changes) 5-phosphoribosyl-1-pyrophosphate,"metabolite 5-phosphoribosyl-1-pyrophosphate, log2 fold change",0.0000
same,Log2(fold changes) 6-phospho-D-gluconate,"metabolite 6-phospho-D-gluconate, log2 fold change",0.1085
same,Log2(fold changes) ADP-D-glucose,"metabolite ADP-D-glucose, log2 fold change",0.0398
same,Log2(fold changes) Acetyl-glycine,"metabolite Acetyl-glycine, log2 fold change",0.0000
same,Log2(fold changes) Acetyllysine,"metabolite Acetyllysine, log2 fold change",-0.1423
same,Log2(fold changes) Aminoadipic acid,"metabolite Aminoadipic acid, log2 fold change",0.0000
same,Log2(fold changes) CDP,"metabolite CDP, log2 fold change",-0.5923
same,Log2(fold changes) CDP-choline,"metabolite CDP-choline, log2 fold change",-0.0652
same,Log2(fold changes) CDP-ethanolamine,"metabolite CDP-ethanolamine, log2 fold change",-0.0101
same,Log2(fold change) of CMP,metabolite CMP,-0.1194
same,Log2(fold change) of CTP,metabolite CTP,0.1369
same,Log2(fold changes) Citraconic acid,"metabolite Citraconic acid, log2 fold change",0.0000
same,Log2(fold change) of D-glucarate,metabolite D-glucarate,0.1211
same,Log2(fold change) of D-gluconate,metabolite D-gluconate,0.1168
same,Log2(fold change) of D-glucosamine-1/6-phosphate,metabolite D-glucosamine-1/6-phosphate,0.0000
same,Log2(fold change) of D-sedoheptulose-1/7-phosphate,metabolite D-sedoheptulose-1/7-phosphate,-0.1410
same,Log2(fold change) of DL-Pipecolic Acid,metabolite DL-Pipecolic Acid,0.1435
same,Log2(fold change) of DLH,metabolite DLH,0.3114
same,Log2(fold change) of DLS,metabolite DLS,0.0979
same,Log2(fold change) of Decanoyl-CoA,metabolite Decanoyl-CoA,0.0000
same,Log2(fold change) of EV,metabolite EV,-0.1292
same,Log2(fold change) of FAD,metabolite FAD,0.0352
same,Log2(fold change) of FMN,metabolite FMN,0.1758
same,Log2(fold change) of G3P/DHAP,metabolite G3P/DHAP,0.0000
same,Log2(fold change) of GDP,metabolite GDP,-0.5345
same,Log2(fold change) GMP,metabolite GMP,0.0470
same,Log2(fold change) GTP,metabolite GTP,0.0942
same,Log2(fold change) HVDD,metabolite HVDD,0.0000
same,Log2(fold change) Hexose,metabolite Hexose,0.0000
same,Log2(fold change) Hydroxyisocaproic acid,metabolite Hydroxyisocaproic acid,0.0000
same,Log2(fold change) IDP,metabolite IDP,0.0737
same,Log2(fold change) IMP,metabolite IMP,-0.0394
same,Log2(fold change) Inositol,metabolite Inositol,0.0000
same,Log2(fold change) Isopentyl-PP,metabolite Isopentyl-PP,0.0000
same,Log2(fold change) L-arginino-succinate,metabolite L-arginino-succinate,-0.0233
same,Log2(fold change) LD,metabolite LD,0.1467
same,Log2(fold change) Myristoyl/tetradecanoyl-CoA,metabolite Myristoyl/tetradecanoyl-CoA,0.0252
same,Log2(fold change) N-Acetyl-L-alanine,metabolite N-Acetyl-L-alanine,0.1261
same,Log2(fold change) N-acetyl-L-ornithine,metabolite N-acetyl-L-ornithine,-0.0214
same,Log2(fold change) N-acetyl-glucosamine-1/6-phosphate,metabolite N-acetyl-glucosamine-1/6-phosphate,0.0000
same,Log2(fold change) N-acetyl-glutamate,metabolite N-acetyl-glutamate,0.0412
same,Log2(fold change) N-acetyl-glutamine,metabolite N-acetyl-glutamine,0.0000
same,Log2(fold change) N-carbamoyl-L-aspartate,metabolite N-carbamoyl-L-aspartate,0.0625
same,Log2(fold change) NAD+,metabolite NAD+,-0.0154
same,Log2(fold change) NADH,metabolite NADH,0.0000
same,Log2(fold change) NADP+,metabolite NADP+,0.0692
same,Log2(fold change) NADPH,metabolite NADPH,-0.1981
same,Log2(fold change) O-acetyl-L-serine,metabolite O-acetyl-L-serine,0.0000
same,Log2(fold change) Octoluse 8/1P,metabolite Octoluse 8/1P,-0.0241
same,Log2(fold change) Octoluse Bisphosphate,metabolite Octoluse Bisphosphate,0.0717
same,Log2(fold change) PD,metabolite PD,0.0223
same,Log2(fold change) PE,metabolite PE,0.1349
same,Log2(fold change) PEE,metabolite PEE,0.2438
same,Log2(fold change) PEEK,metabolite PEEK,0.3424
same,Log2(fold change) PVNF,metabolite PVNF,0.2854
same,Log2(fold change) Pyroglutamic acid,metabolite Pyroglutamic acid,-0.2488
same,Log2(fold change) Pyrophosphate,metabolite Pyrophosphate,0.0000
same,Log2(fold change) Ribose-5-phosphate,metabolite Ribose-5-phosphate,0.1278
same,Log2(fold change) S-adenosyl-L-homocysteine,metabolite S-adenosyl-L-homocysteine,-0.2617
same,Log2(fold change) S-adenosyl-L-methioninamine,metabolite S-adenosyl-L-methioninamine,0.0000
same,Log2(fold change) S-adenosyl-L-methionine,metabolite S-adenosyl-L-methionine,0.0000
same,Log2(fold change) S-methyl-5'-thioadenosine,metabolite S-methyl-5'-thioadenosine,0.0070
same,Log2(fold change) SD,metabolite SD,0.1296
same,Log2(fold change) SDL,metabolite SDL,0.0391
same,Log2(fold change) SID,metabolite SID,0.2783
same,Log2(fold change) Sedoheptulose bisphosphate,metabolite Sedoheptulose bisphosphate,0.1433
same,Log2(fold change) Thiamine pyrophosphate,metabolite Thiamine pyrophosphate,0.0526
same,Log2(fold changes) UDP-D-glucose,"metabolite UDP-D-glucose, log2 fold change",0.0961
same,Log2(fold changes) UDP-D-glucuronate,"metabolite UDP-D-glucuronate, log2 fold change",0.1278
same,Log2(fold changes) UDP-N-acetyl-glucosamine,"metabolite UDP-N-acetyl-glucosamine, log2 fold change",0.0189
same,Log2(fold changes) UDP,"metabolite UDP, log2 fold change",-0.6136
same,Log2(fold changes) UMP,"metabolite UMP, log2 fold change",-0.1186
same,Log2(fold changes) UTP,"metabolite UTP, log2 fold change",0.1051
same,Log2(fold changes) VD,"metabolite VD, log2 fold change",0.0754
same,Log2(fold changes) Xanthurenic acid,"metabolite Xanthurenic acid, log2 fold change",0.0000
same,Log2(fold changes) a-ketoglutarate,"metabolite a-ketoglutarate, log2 fold change",0.1610
same,Log2(fold changes) acetyl-CoA,"metabolite acetyl-CoA, log2 fold change",0.1670
same,Log2(fold changes) acetyl-aspartate,"metabolite acetyl-aspartate, log2 fold change",0.0000
same,Log2(fold changes) acetylphosphate,"metabolite acetylphosphate, log2 fold change",0.0000
same,Log2(fold changes) aconitate,"metabolite aconitate, log2 fold change",0.1208
same,Log2(fold changes) adenine,"metabolite adenine, log2 fold change",0.0000
same,Log2(fold changes) adenosine 5'-phosphosulfate,"metabolite adenosine 5'-phosphosulfate, log2 fold change",0.0000
